Article PMC6452685, “Lysyl-tRNA synthetase as a drug target in malaria and cryptosporidiosis” (Proceedings of the National Academy of Sciences of the …, 2019)
In brackets after ≈: the same amount, converted by molar mass.

How the values were obtained:
[1] = test system: Nluc-expressing transgenic C. parvum; assay: Anti-Cryptosporidium in vivo efficacy in IFN-γ-knockout mice (Nluc C. parvum); parameters: species or system mouse; settings: 20 mg/kg orally once a day for 7 d
Experimental: INF-γ–knockout mice ([28], [29]) were infected orally with Nluc-expressing transgenic C. parvum oocysts. Treatment started upon patency 4 d postinfection (p.i.), and mice were treated orally once a day for 7 d. Infection was monitored daily by luciferase measurements in pooled feces of the entire cage. Mice were followed for 3 wk after completion of drug treatment. […] NOD SCID gamma mice were infected with C. parvum oocysts ([26]). Treatment started 7 d p.i., and mice were treated orally once a day for 7 d. The study was run with four mice per cage; infection was monitored by quantitative PCR on day eight for individual mice, and data are shown as oocysts per milligram of feces. […]
Data analysis was performed using GraphPad Prism 7.0 (GraphPad S oftware), Excel 2016 (Microsoft ) and R free so ftware (https://www.r-project.org) for data pl otti ng and s tati s ti cal model li ng. […]
5. 4 M eas urement of a nt i-Cryptosporidium in vivo efficacy in IFN-γ-knockout mice (Georgia) The Nl uc-C. parvum IFN-γ-knockout (IFN-γ KO) m ouse in vivo experiments were run in acco rdance with the publ i s hed method (22). Briefly, female C57BL/ 6 IFN-γ KO mi ce, aged 6–8 weeks were infected with 10,000 C. parvum UG A1 Nl uc (Vi naya k et al 2015, Natu re) tra ns g eni c oocys ts . […]

[2] = test system: Plasmodium falciparum; assay: In vitro parasite reduction ratio (PRR) assay; format: cell-based; settings: 10 x EC50, 120 h
Experimental: 3.5 In vitro parasite reduction ratio (PRR) assay with Pl as modi um fal c i p aru m (G S K) The in vitro Parasite Rate Reduction assay (PRR) was conducted as previously described (8). […] Drug was renewed daily over the entire treatment period. Samples of paras i t es w ere t ak en from t he t reat ed cul t ure at i nt erv al s (24, 48, 72, 96 and 120 h t i me poi nt s ), drug was washed out and drug-free paras i t es w ere cul tured i n 96-well plates by adding fre s h e ry t hrocy t e s
and new cul ture medi a. T he n umber of vi abl e parasi tes was determi ned by the seri al di l uti on technique. Four indepe ndent serial dilutions were done with each sample to correct for experimental

[3] = test system: P. falciparum; assay: In vivo antimalarial efficacy in P. falciparum-infected SCID mice engrafted with human erythrocytes; settings: SCID mouse, orally once a day for 4 d
Excerpt: The l ev el of each comp ound i n mouse bl ood was determi ned by UPLC -MS/MS as previously re port e d (18). Pharmacokinetic parameters were derived from the blood c oncent ration time curve usi ng PKsol uti ons software v 2.0 (Summi t Research Servi ces, USA).
The mi ce were i ntrav enous l y i nfected with 2×107 P. fa l ci p a rum Pf3D700 87/ N9-infected erythrocytes (day 0). On day 3 after infection, mice (n=2) were rand oml y al l ocated to treatments that were admi nis tered once a day for 4 cons ecuti v e day s by oral g av ag e at 10 ml/k g.
The compo und c onc entrati on v ers us ti me data were anal yzed by non-compartmental anal ysi s (NCA) usi ng Phoeni xR Ve rsi on 6.3 (Pha rsi ght Corporati on, M ountai n Vi ew, CA, USA).
Femal e i mmunodefi ci ent NOD-sc i d I L-2Rγnull mi ce (NSG) (Charl es Ri v er, France) of 25-28 g r b ody w ei g ht w ere hou s ed i n The A rt of D i s cov ery ani mal faci li t y at BIC

[4] = biological target: human ether-à-go-go related gene (hERG) K+ channel (Homo sapiens, UniProt Q12809); assay: hERG K+ channel assay (IonWorks patch clamp); format: cell-based
human ether-à-go-go related gene (hERG) K+ channel, sequence (Q12809 whole entry): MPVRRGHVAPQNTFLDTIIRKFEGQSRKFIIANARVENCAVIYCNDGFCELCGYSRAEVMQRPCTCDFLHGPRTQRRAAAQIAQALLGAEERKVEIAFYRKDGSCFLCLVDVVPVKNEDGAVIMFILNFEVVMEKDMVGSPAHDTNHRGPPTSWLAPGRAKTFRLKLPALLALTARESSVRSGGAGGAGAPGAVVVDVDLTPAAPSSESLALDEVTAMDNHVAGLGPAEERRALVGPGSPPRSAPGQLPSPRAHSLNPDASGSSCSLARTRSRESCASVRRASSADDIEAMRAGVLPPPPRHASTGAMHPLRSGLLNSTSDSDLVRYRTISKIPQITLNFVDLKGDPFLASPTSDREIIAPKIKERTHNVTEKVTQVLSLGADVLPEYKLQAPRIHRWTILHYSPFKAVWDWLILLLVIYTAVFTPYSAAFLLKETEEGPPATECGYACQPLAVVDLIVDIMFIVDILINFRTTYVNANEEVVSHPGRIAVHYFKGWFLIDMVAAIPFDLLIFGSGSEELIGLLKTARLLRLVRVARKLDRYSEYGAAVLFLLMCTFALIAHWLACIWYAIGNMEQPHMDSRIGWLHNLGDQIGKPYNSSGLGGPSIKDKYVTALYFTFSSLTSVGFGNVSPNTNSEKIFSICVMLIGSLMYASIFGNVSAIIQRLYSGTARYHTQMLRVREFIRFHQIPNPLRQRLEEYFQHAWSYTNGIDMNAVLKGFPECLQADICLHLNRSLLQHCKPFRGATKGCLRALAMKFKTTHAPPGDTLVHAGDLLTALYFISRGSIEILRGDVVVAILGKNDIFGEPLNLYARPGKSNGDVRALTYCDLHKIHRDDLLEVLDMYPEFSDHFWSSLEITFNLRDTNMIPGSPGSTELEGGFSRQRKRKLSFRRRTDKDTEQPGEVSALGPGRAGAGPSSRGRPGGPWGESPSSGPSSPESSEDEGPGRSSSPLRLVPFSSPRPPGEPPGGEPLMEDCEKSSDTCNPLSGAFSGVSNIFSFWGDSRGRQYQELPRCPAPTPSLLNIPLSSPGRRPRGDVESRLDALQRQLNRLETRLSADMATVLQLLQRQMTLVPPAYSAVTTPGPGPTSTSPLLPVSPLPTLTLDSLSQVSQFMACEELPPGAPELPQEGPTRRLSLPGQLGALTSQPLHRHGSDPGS

[5] = Intrinsic clearance in human liver microsomes; format: in vitro ADME
[6] = FaSSIF solubility; format: physicochemical; settings: 37 °C, thermodynamic from solid; FaSSIF pH 6.5
Experimental: 4.1 Aque ous s olubilit y
Compounds were subject to serial dilution from 10 mM to 0.47 mM in DMSO. An al i quot was then mi xed wi th Mi l li Q water to obtai n a n aq ueous di l uti on pl ate wi th a fi na l concentrati on rang e of 250 - 13 µM, with a final DMSO concentration of 2. 5 % (v /v ). Triplicate al i quots were transferred to a fl at bottomed pol ystyrene pl ate whi ch was i mmedi ately read o n the NEPHELOstar (BMG Lab Techn ol ogi es). […]
Drug dissolution in biorelevant media which simulates the liquid environment within the upper […]
into the blood stream and is more a more accurate determination of oral d os e s ol ubi li t y t han si mple aqueous sol ubi l i ty performed at neutral pH and wi thout any associ ated bil e aci ds and fats. This method i s based on that of Fagerberg et al. (16) where the FaSSIF has pH 6.5 a nd c ontains 3 mM sodium taurocholate and 0.7 5 mM lectithin. FaSSIF blank only has pH 6.5 and is devoid of salts and […]
[…] The sampl e i s then centri fuged at 10,00 0 rpm for 3 mi n befo re th e supernatant i s subject to HPLC analysis at 254 nm UV detecti on wavel ength. Typi call y, 10 µ l supernatant injections are suffi ci ent to achi eve peak areas whi ch fal l wi thi n the 6 p oi nt standar d curv e of anal y te concentrati ons i njected onto the col umn, al thoug h thi s may be i ncreas ed up to 40 µl for more insoluble compounds where necessary. […]

Q: With `O=C(NCC1(O)CCC(F)(F)CC1)c1cc(=O)c2cc(F)ccc2o1` [Compound 5] as the molecule, how does the parasite shedding ([1]; INF-γ–knockout mice) read?
A: below detection level

Q: And the “reduction in parasite levels compared with control” value ([1]; INF-γ–knockout mouse, day 8)?
A: 10,000 fold

Q: What about the “rate of killing (PRR assay)” value [2] of the same molecule?
A: slow rate of killing

Q: And the “AUCED90, estimated daily exposure in blood reducing parasitemia by 90% at day 5” value [3]?
A: 11,000 ng⋅h⋅ml^−1⋅d^−1

Q: What about the “ED90, daily oral dose reducing parasitemia by 90% at day 5” value [3] of the same molecule?
A: 1.5 mg⋅kg^−1

Q: What about the EC50 [4] of the same molecule?
A: > 100 µM

Q: What about the “Microsomal stability CLint” value [5] of the same molecule?
A: < 0.5 mL⋅min^−1⋅g^−1

Q: What about the solubility at 5 h [6] of the same molecule?
A: 255 µM (≈ 90.6 µg/mL)
